Measured values as given in publication PMC6934184, “Selective DNA-PKcs inhibition extends the therapeutic index of localized radiotherapy and chemotherapy” (The Journal of Clinical Investigation, 2019).

Molecular target: T1, ALK F1174L (Homo sapiens, UniProt Q9UM73, F1174L)
T1 construct: purchased Thermo Fisher Scientific (Life Technologies) SelectScreen
Assay: SelectScreen LanthaScreen
Type: binding
Details: read-out: % displacement
How it was run: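 NU5455 was profiled across the SelectScreen Broad panel of kinase activity and binding assays. Z'LYTE reactions such as CSF1R ran at apparent Km ATP, while the Adapta CAMK1 assay used ATP listed as 10. Values are given as percent.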

T1 sequence (Q9UM73 19-1620 F1174L): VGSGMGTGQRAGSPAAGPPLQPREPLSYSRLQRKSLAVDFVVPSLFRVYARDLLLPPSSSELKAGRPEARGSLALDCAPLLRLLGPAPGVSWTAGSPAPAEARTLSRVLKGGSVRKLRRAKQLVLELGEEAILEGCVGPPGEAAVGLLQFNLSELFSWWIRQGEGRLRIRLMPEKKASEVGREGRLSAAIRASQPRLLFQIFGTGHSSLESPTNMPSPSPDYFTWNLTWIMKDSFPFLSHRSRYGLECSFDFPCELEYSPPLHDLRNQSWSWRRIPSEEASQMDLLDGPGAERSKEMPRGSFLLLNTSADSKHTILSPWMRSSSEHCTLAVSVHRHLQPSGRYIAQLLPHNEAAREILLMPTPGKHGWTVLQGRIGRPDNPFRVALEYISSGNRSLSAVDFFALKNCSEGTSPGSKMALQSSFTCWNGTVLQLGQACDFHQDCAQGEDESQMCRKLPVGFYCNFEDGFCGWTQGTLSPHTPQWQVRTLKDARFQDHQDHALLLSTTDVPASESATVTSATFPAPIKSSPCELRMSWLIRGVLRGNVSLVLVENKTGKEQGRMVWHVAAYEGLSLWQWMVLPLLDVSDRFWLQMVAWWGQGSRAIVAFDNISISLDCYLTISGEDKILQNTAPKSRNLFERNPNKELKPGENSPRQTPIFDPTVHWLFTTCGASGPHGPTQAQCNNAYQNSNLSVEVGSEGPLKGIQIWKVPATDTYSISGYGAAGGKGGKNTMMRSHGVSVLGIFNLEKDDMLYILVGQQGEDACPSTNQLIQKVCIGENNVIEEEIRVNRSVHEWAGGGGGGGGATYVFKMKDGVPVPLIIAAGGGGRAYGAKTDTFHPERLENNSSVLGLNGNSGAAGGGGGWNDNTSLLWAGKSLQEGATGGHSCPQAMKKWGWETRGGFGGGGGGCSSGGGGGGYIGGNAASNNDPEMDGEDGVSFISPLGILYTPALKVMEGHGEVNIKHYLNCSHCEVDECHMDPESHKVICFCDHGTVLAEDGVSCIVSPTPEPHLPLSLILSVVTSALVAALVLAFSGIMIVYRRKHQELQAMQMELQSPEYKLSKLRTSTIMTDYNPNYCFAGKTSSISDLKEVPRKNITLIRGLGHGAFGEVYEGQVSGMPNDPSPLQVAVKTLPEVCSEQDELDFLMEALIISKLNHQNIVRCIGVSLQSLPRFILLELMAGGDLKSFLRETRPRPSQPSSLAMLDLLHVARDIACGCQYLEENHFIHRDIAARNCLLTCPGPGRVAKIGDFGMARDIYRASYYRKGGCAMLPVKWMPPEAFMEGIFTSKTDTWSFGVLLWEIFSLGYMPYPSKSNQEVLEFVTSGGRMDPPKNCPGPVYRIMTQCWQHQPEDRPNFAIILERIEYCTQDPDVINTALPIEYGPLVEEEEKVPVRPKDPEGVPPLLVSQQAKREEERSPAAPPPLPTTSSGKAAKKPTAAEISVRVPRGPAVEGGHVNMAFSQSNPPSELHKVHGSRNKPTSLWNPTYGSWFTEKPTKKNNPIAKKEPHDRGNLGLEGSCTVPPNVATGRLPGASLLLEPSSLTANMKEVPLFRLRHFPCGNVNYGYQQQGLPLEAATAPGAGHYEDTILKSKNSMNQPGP

CN(C(=O)CN1CCOCC1)c1ccc2sc3c(-c4cccc5c(=O)cc(N6CC7CCC(C6)O7)oc45)cccc3c2c1 [NU5455]
inhibition at 1 µM: 1.6%
